In patent publication US20040186098A1 (Amgen Inc., priority 1997, published 2004):

Columns and labels:
hair cells = assay: Intramiddle ear neomycin-induced ototoxicity, compound given systemically (subcutaneous), hair cell loss; format: in vivo, guinea pig; conditions: 10 mg s.c. at day 0, 2 and 7
Protocol: Twenty guinea pigs were treated either with sensorineurotrophic compound or vehicle prior to administration of the ototoxin. Ten of the guinea pigs were subcutaneously injected with freshly made sensorineurotrophic compound solution. On the day of injection, 100 mg of the sensorineurotrophic compound was dissolved in 1 ml of ethanol, then 20% of the Intralipids solution was added to make a final volume of 3 ml. The final sensorineurotrophic compound concentration was 10 mg/0.3 ml. Each animal was subcutaneously injected with 0.3 ml of the sensorineurotrophic compound solution at day 0, day 2 and day 7. Another 10 animals were subcutaneously injected with 0.3 ml of the vehicle (20% Intralipids), individually at day 0, day 2 and day 7.
At day 2, guinea pigs used in this study were administered neomycin or neomycin vehicle in the middle ear.
Animals were anesthetized with intramuscular injection of a mixture of ketamine (80 mg/kg) and xylazine (4 mg/kg). Through a post-auricular incision, the right bulla was identified. A hole was drilled to open the middle ear cavity (care was taken not to injure the tympanic annulus or ossicles). A piece of gelfoam (˜2 mm^3) was soaked with neomycin solution (fresh made at a concentration of 50 mg/ml) and was inserted into the round window niche. The remaining neomycin solution (˜100 μl) was then injected into the middle ear cavity. […]

[1] = test system: hair cells in rat organ of Corti explant; assay: Organ of Corti (cochlea) explant culture, hair cell survival after neomycin; format: cell-based
Protocol: The sensorineurotrophic compound stock solution was stored at room temperature and prepared fresh for each culture. The stock solution was diluted in 10 μl of 100% EtOH for every milligram of sensorineurotrophic compound in the stock solution (approximately 250 mM). This solution of 250 mM sensorineurotrophic compound in 100% EtOH was diluted in normal culture medium to working concentrations of 50000 nM, 5000 nM, 500 nM, 50 nM, 5000 pM, 500 pM, 50 pM, 10 pM, 5 pM, 1 pM, 0.5 pM, 0.1 pM, and 0.01 pM. […]
Organ of Corti explants were obtained from P3-P4 Wistar rats. […] The organ of Corti then was transferred to a 35-mm diameter Petri dish containing cold PBS supplemented with glucose and was ready to be cultured. […]
To identify and count hair cells in the organ of Corti, a direct immunostaining method was used to label the actin present naturally in the stereocilia bundles of the hair cells. […] The explants were observed under a Nikon Diaphot-300 inverted fluorescence microscope, using FITC filters and fluorescence optics.
In each cochlea, the number of hair cells was counted in 2-3 sections, 175 μm in length each. Only the sections in the middle turn of the cochlea were analyzed. […]

CCC(C)(C)C(=O)C(=O)N1CCC[C@H]1C(=O)OCCCc1cccnc1 [Compound I]
difference in the loss of hair cells between vehicle and treated animals (hair cells; 5 mg neomycin middle ear at day 2, day 16): ~31%
hair cell loss (hair cells; 5 mg neomycin middle ear, vehicle animals about 75%): about 45%
surviving hair cells ([1]; Compound I 0.05 pM together with 0.6 mM neomycin): 31.8%±16.4
loss of hair cells ([1]; Compound I 0.05 pM together with neomycin, neomycin alone 95%): around 70%
